In publication PMC8400955 (Pharmaceuticals, 2021):

How the values were obtained:
[1] = 4-week repeat-dose toxicity/TK study in rats; format: in vivo, Sprague Dawley rats; settings: for AUC(0-t) / Cmax / Tmax: Sprague Dawley (Crl: CD (SD)), rat, plasma, po
Procedure: The PK of ZB716 was investigated in a 4-week repeat-dose toxicity study in rats. Groups of Sprague Dawley rats (n = 10/sex/group; n = 3/sex/TK group) were orally administered ZB716 (5% EtOH, 15% PG, 5% Solutol, and 75% of 40% HP-β-CD in DI water) at dose levels of 25, 100, and 400 mg/kg/day for 4 weeks. The plasma concentration of ZB716 was measured at various times through to 24 h post-dose on days 1 and 28.
Four-to-six-week-old Sprague Dawley rats (Crl: CD (SD)) (SPF/VAF) were purchased from Beijing Vital River Laboratory Animal Technology, Co. Ltd.). Six-month-old beagle dogs were purchased from Beijing Marshall Biotechnology Co. Ltd. Animals were quarantined/acclimated for 2–6 weeks prior to dose initiation. Both Sprague Dawley rats and beagle dogs were given oral administration of ZB716 (20% PG, 5% Solutol, and 75% of 40% HP-β-CD in water) at different dose levels. After treatment with the test articles, whole blood was collected from each study animal by puncture of the tail vein (0.4 mL of whole blood from rats) and/or the peripheral vein (0.6 mL of whole blood from dogs) into tubes containing K2EDTA at each timepoint: pre-dose, and 0.5, 1, 2, 4, 8, and 24 h post-dose. The plasma samples were divided into 2 aliquots (approximately equal in volume) and stored frozen at −75 ± 15 °C within 2 h of the collection until analysis at Pharmaron, China.
The stock solution of ZB716 (5.0 mg/mL) and ZB716-d6 (1 mg/mL) in ACN:DI Water = 1:1 was prepared and stored at −20 ± 5 °C. The desired serial concentrations of working reference analyte solutions were achieved by diluting a stock analyte solution with 50% acetonitrile (0.1% formic acid) in water solution. The bioanalytical LC–MS/MS method was validated for quantitative determination of ZB716 in Sprague Dawley rat plasma and beagle dog plasma, with acceptable selectivity, sensitivity, calibration curve, precision, and accuracy. This method is applicable for the determination of ZB716 in Sprague Dawley rat plasma and beagle dog plasma, with a lower limit of quantification of 20.0 ng/mL, and an upper limit of quantification of 10,000 ng/mL.
Five microliters of diluted supernatant was injected into the LC–MS/MS system (Shimadzu LC30AD HPLC system with a SynergiTM 4 μm Fusion-RP 80 Å (50 × 2 mm) column using gradient elution and a Triple Quad 5500 mass spectrometer) for quantitative analysis. The mobile phases used were 0.1% formic acid in deionized water and 0.1% formic acid in acetonitrile. The pharmacokinetic parameters T1/2 (the biological half-life), Cmax (maximal concentration), Tmax (time at which Cmax is observed), and AUC (area under the plasma concentration–time curve) were calculated from the plasma concentration versus time data using WinNonlin (Phoenix^TM, version 8.1, Mountain View, CA, USA). All PK studies were conducted by Pharmaron in Beijing, China.

CYP2D6 = CYP2D6 (Homo sapiens, UniProt P10635); test: CYP inhibition in human liver microsomes, CYP2D6; format: in vitro ADME; settings: HLM, marker substrate Dextromethorphan
Procedure: . The inhibition of CYP2B6 and 3A4 (when midazolam was used as the substrate) by ZB716 was not observed. The inhibitory potential of ZB716 on human CYP enzyme activities appears relatively low.
The final concentrations of ZB716 in the incubation system were 0, 0.05, 0.15, 0.5, 1.5, 5, and 15 µM (final organic solvent concentration ≤ 1%). […] . […] The concentrations of the isoform-specific metabolites derived from marker substrates were measured by UPLC–MS/MS. The IC50 values were calculated from the percentages of the rate of the metabolite formation relative to non-inhibited controls vs. the concentrations of ZB716 or positive control inhibitors. All incubations were performed in triplicate. The mean of the enzyme activity (% of non-inhibited control) for each concentration was plotted against the log inhibitor concentration, and fitted to an IC50 curve.

[2] = Metabolic stability in human hepatocytes; format: in vitro ADME
Procedure: (§1) Hepatocytes of humans (#X008001), dogs (#M00205), rats (#M00005), and mice (#M005052) were purchased from BioIVT, NY, USA. Monkey hepatocytes were procured from RILD, Shanghai, China. The metabolic stability of ZB716 in human, monkey, dog, rat and mouse hepatocytes was investigated by incubating ZB716 with human, monkey, dog, rat, and mouse hepatocytes (0.5 × 10^6 cells/mL), or with incubation medium only.
(§2) parent disappearance vs. incubation time curve.
(§3) Scaled-up Clint = kV/N × Scaling Factor
(§4) metabolite formed during the reaction.

human hepatocytes = test: Metabolic stability in human hepatocytes; format: in vitro ADME; settings: 1 μM
Procedure: as §1, §2, §3, §4

mouse hepatocytes = test: Metabolic stability in mouse hepatocytes; format: in vitro ADME; settings: 1 μM
Procedure: as §1, §2, §3, §4

[3] = female, 25 mg/kg/day, day 1, PO 25 mg/kg/day, Female
[4] = female, 25 mg/kg/day, day 28, PO 25 mg/kg/day, Female
[5] = female, 100 mg/kg/day, day 1, PO 100 mg/kg/day, Female
[6] = female, 100 mg/kg/day, day 28, PO 100 mg/kg/day, Female
[7] = female, 400 mg/kg/day, day 1, PO 400 mg/kg/day, Female
[8] = female, 400 mg/kg/day, day 28, PO 400 mg/kg/day, Female
[9] = male, 25 mg/kg/day, day 1, PO 25 mg/kg/day, Male
[10] = male, 25 mg/kg/day, day 28, PO 25 mg/kg/day, Male
[11] = male, 100 mg/kg/day, day 1, PO 100 mg/kg/day, Male
[12] = male, 100 mg/kg/day, day 28, PO 100 mg/kg/day, Male
[13] = male, 400 mg/kg/day, day 1, PO 400 mg/kg/day, Male
[14] = male, 400 mg/kg/day, day 28, PO 400 mg/kg/day, Male

Sequence of CYP2D6 (P10635 whole entry): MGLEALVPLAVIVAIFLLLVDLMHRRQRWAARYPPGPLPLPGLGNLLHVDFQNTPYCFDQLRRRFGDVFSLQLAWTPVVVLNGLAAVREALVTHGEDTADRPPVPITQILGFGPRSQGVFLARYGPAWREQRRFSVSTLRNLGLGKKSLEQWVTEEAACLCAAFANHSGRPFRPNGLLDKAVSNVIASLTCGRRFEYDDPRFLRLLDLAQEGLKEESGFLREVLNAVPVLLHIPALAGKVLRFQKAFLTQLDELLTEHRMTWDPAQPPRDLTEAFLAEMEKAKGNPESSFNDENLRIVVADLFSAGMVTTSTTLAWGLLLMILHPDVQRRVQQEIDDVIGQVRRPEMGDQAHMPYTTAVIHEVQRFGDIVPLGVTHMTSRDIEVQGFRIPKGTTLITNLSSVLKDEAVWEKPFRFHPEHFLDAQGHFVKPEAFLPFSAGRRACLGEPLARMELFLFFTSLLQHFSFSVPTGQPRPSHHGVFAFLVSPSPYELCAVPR

With `C[C@]12CC[C@@H]3c4ccc(B(O)O)cc4C[C@@H](CCCCCCCCC[S+]([O-])CCCC(F)(F)C(F)(F)F)[C@H]3[C@@H]1CC[C@@H]2O` (stereo partly shown) [ZB716, fulvestrant-3-boronic acid] the “test-article-related mortality or moribundity” value ([1]; PO 25, 100, 400 mg/kg/day for 4 weeks) was “no test-article-related mortality or moribundity”, the AUC(0-t) [1, 3] was 7700 ng·h/mL and the Cmax [1, 3] was 1310 ng/mL. It also gave a Tmax [1, 3] of 1 h, an AUC(0-t) [1, 4] of 8040 ng·h/mL and a Cmax [1, 4] of 1770 ng/mL. For the same compound, the Tmax [1, 4] was 1 h, the AUC(0-t) [1, 5] was 42200 ng·h/mL and the Cmax [1, 5] was 3200 ng/mL. The Tmax [1, 5] was 1 h, the AUC(0-t) [1, 6] was 24500 ng·h/mL and the Cmax [1, 6] was 3850 ng/mL. For the same compound, the Tmax [1, 6] was 1 h, the AUC(0-t) [1, 7] was 121000 ng·h/mL and the Cmax [1, 7] was 11900 ng/mL. The Tmax [1, 7] was 2 h, the AUC(0-t) [1, 8] was 51800 ng·h/mL and the Cmax [1, 8] was 4850 ng/mL. It also gave a Tmax [1, 8] of 2 h, an AUC(0-t) [1, 9] of 5400 ng·h/mL and a Cmax [1, 9] of 1040 ng/mL. For the same compound, the Tmax [1, 9] was 0.5 h, the AUC(0-t) [1, 10] was 4750 ng·h/mL and the Cmax [1, 10] was 1310 ng/mL. The Tmax [1, 10] was 0.5 h, the AUC(0-t) [1, 11] was 15700 ng·h/mL and the Cmax [1, 11] was 1870 ng/mL. For the same compound, the Tmax [1, 11] was 1 h, the AUC(0-t) [1, 12] was 20100 ng·h/mL and the Cmax [1, 12] was 2840 ng/mL. For the same compound, the Tmax [1, 12] was 0.5 h, the AUC(0-t) [1, 13] was 52400 ng·h/mL and the Cmax [1, 13] was 3400 ng/mL. The Tmax [1, 13] was 1 h, the AUC(0-t) [1, 14] was 50700 ng·h/mL and the Cmax [1, 14] was 4060 ng/mL. The Tmax [1, 14] was 2 h, the IC50 (CYP2D6) was 12.5 µM and the half-life at 1 μM ([2]; read-out: Estimated In Vitro t1/2) was 34.9 ± 1 min. For the same compound, the hepatocyte CLint at 1 μM ([2]; read-out: In Vitro Clint) was 39.7 ± 1.1 µL/min/1e6 cells, the CLint scaled at 1 μM ([2]; read-out: Scaled-Up Clint) was 101 ± 3 mL/min/kg and the “Remaining at 120 min” value (human hepatocytes) was 7.98 ± 0.7%. The “Remaining at 120 min” value (mouse hepatocytes) was 6.24 ± 0.58%.
